In patent publication US6506793B2, “Citral acetal” (Kao Corporation, priority 2000, dated 2003):

Test system: smell (isovaleric acid) of the socks
Test: Organoleptic evaluation of smell of socks after application onto a bare foot
Assay type: in vivo, human
Design: key: 5: Strong; 4: Slightly strong; 3: Moderate; 2: Slightly weak; 1: Weak; 0: Does not smell
Details: 2 g of 0.1% solution in ethanol on a bare foot; smell (isovaleric acid) of socks after 8 hours
Source text: The present compounds 1 to 3 obtained in Examples 1 to 3, as well as commercial citral propylene glycol acetal (CITRAL PGA produced by Inoue Koryo Co., Ltd.) and citral hexylene glycol acetal (CITRAL HGA produced by Inoue Koryo Co., Ltd.) as comparative compounds, were used to prepare 0.1% solutions in ethanol respectively, and 2 g solution was applied onto a bare foot. 2 g ethanol (containing no test sample) was applied onto the other bare foot (blank), then socks were put on the feet respectively, and the extent of smell (isovaleric acid) of the socks after 8 hours was subjected to organoleptic evaluation by one skilled examiner in the following 6-level criteria.

Compound | Strength of Smell
CC(C)=CCCC(C)=CC1OC(C)CC(C)(C)O1 (centres unmarked) [CITRAL HGA, citral hexylene glycol acetal, reference compound] | 5
CC(C)=CCC/C(C)=C/C1OCC(C)O1 (centres unmarked) [CITRAL PGA, citral propylene glycol acetal, reference compound] | 5
CCCCCOCC1COC(C=C(C)CCC=C(C)C)O1 (centres unmarked) [Present Compound 1, citral pentyl glyceryl ether acetal] | 2
CCCCCCCCOCC1COC(C=C(C)CCC=C(C)C)O1 (centres unmarked) [Present Compound 2, citral n-octyl glyceryl ether acetal] | 2
CCCCC(CC)COCC1COC(C=C(C)CCC=C(C)C)O1 (centres unmarked) [Present Compound 3, citral 2-ethyl hexyl glyceryl ether acetal] | 1
